Measured values from patent EP1028734B1, “USE OF SPECIFIC STEADY-STATE R-TYPE CALCIUM CHANNEL BLOCKERS” (priority 1997, dated 1999).
“Also recorded” adds a separate entry of the source.

Columns and labels:
T-type Ca^2+ current = assay: whole-cell voltage clamp, T-type Ca2+ current in heart cells; format: cell-based; conditions: 10^-9M to 10^-7M, n=7
Procedure: Single cells of different types in culture were prepared from biopsies of human, chick and rabbit. Known and accepted methods for the isolation of fast Na^+ current, T, L and R-type Ca^2+ channels as well as delayed outward K^+ current were used (Bkaily 1994, supra).
The compounds to be tested are added to the appropriate extracellular solution after recording a stable ionic current or normal steady-state level of [Ca]n and [Ca]n The effect of different concentrations of compounds are tested on the different type of current and [Ca]i of the different cell types. The effect of each concentration of the compounds in function of the time of exposure are then determined. Once the steady-state effect is reached, the second concentration is added, etc.
In another series of experiments (n=7), the effect of different concentrations of MV8608 were tested on the T-type Ca^2+ current (lCa) using the whole-cell voltage clamp technique and classical experimental conditions described elsewhere by the inventors (Bkaily G. et al., 1991, supra; 1992, supra; 1993, supra). […] As it can be seen in that figure, the inset effect of MV8608 in T-type ICa is immediate.

R-type Ca^2+ channel [1] = assay: cell attached single channel patch clamp, R-type Ca2+ channel in human aortic vascular smooth muscle cell line; format: cell-based
Procedure: Also, for the R-type Ca^2+ channel current, the effect of the compounds are tested on the R-type Ca^2+ channel amplitude, voltage dependency and probability of opening, by using the cell-attached patch clamp technique (Bkaily 1994, supra; 1996, supra) and intra and extra patch pipette application of the drug.
In another series of experiments (n=7), using the cell attached patch clamp technique (Bkaily G. 1994, supra; Bkaily G. et al., 1996, supra), the effect of 10^-7M of MV8608 on the R-type Ca^2+ channel in human aortic vascular smooth muscle cell line was tested. […] In a second series of experiments (n=3), the patch pipette solution was free of MV8608 and after recording the single channel activities at different voltages, MV8608 (final concentration of 10^-7M) was applied to the extra-patch pipette solution containing 140mM KCI (where the rest of the cell is bathing). This experiment was designed to verify whether MV8608 crossed the cell membrane and if so, whether its effect from the internal side of the channel under the patch is the same as that when applied at the outer side thereof. […] Such a pattern of increase of probability of opening and the open duration accompanied with the sporadic decrease of the single channel current amplitude has never been observed when MV8608 was applied at the outer side of the single channel under the patch pipette.
In another series of experiments (n=7), the effect of 10^-7M of MV8612 was tested on the R-type Ca^2+ in human aortic VSM cells, using the single channel cell attached recording technique and intra and extra patch pipette application of drugs.
In one series of experiments (n=3), MV8612 (total concentration, 10^-7M) was only applied to the patch pipette. […] As for MV8608, in one series of experiments (n=4), MV8612 (10^-7M) was only applied to the extra-patch pipette, in order to verify if the compound penetrates into the cytosol and if so, how it affects the R-type Ca^2+ channel activity.

R-type Ca^2+ channel [2] = assay: Fura-2 total [Ca]i measurement, sustained increase of [Ca]i via stimulation of R-type Ca2+ channels; format: cell-based, chick, human, rabbit
Source text: This sustained increase of Ca^2+ induced by depolarization of the cell membrane or hormones such as PAF, ET-1 and bradykinin is due to the increase of Ca^2+ influx through the R-type Ca^2+ channels at the sarcolemmal membrane and/or the nuclear membrane (Bkaily G., 1994, supra; 1996, supra; 1997a-d, supra). Using Ca^2+ fluorescence probes Fura-2 or Fluo-3 and 2 and three-dimension Ca^2+ imaging techniques (Bkaily G., 1994, supra; 1996, supra; 1997a-d, supra), the effect of hormones and drugs could be easily tested. These two methods are used with single cells of different types as described above. […]
Using Fura-2 [Ca]i measurement technique, in one series of experiments we tested the effect of MV8612 (10^-9M) on the stimulation of R-type Ca^2+-induced sustained increase of [Ca]i by sustained depolarization (Figures 26 and 27), PAF (10^-9M, Figure 34) and ET-1 (Figures 33 and 34).

mouse paw oedema = format: in vivo, mice; conditions: i.p.
Procedure: In this experiment (N =5 to 6 animals per group), the anti-oedemagenic action of compounds MV 8608 and MV 8612 against bradykinin and several mediators which are reported to be involved in the inflammatory processes, was evaluated. The procedures used to perform these experiments have been reported elsewhere (Neves et al., 1993, Eur. J. Pharmacol. 243:213-219; Campos et al., 1995, Br. J. Pharmacol. 114:1005-1013; Campos et al., 1996, Br. J. Pharmacol. 117:793-798; Eur. J. Pharmacol. 316:227-286). […] As reported previously, in rats treated […] prior to a systemic injection of LPS, both B1 and B2 kinin selective agonists caused marked oedema formation (Figures 37C and D (Campos et al., 1996, supra)).
When tested in mice, MV 8612 (40 to 160 nmol/paw) inhibited bradykinin and carrageenan-induced paw oedema in mice in a dose-dependent manner (Figures 46A and B).

murine model of pleurisy = format: in vivo, mice
Procedure: (§1) To assess further the anti-inflammatory action of MV 8612 and MV 8608, their effects against the inflammatory responses caused by several mediators of inflammation in a murine model of pleurisy were tested (Saleh et al., 1996, Br. J. Pharmacol 118:811-819). In addition, both compounds were tested against the increase of vascular permeability caused by bradykinin in the rat skin (Neves et al., 1993b, Phytotherapy Research. 7:356-362).

[3] = bradykinin-induced skin vascular permeability in rats; format: in vivo, rat
Procedure: as §1

human lymphocyte = human lymphocyte proliferation in vitro; format: cell-based; conditions: MV 8612, MV 8608 14.5 to 116 M
Procedure: In a separate series of experiments, compounds MV 8612 and MV 8608 were tested to analyze whether they interfered with human lymphocyte proliferation "in vitro". These experiments were carried out as reported previously (Moraes et al., 1996, Eur. J. Pharmacol. 312:333-339).

[4] = MV 8612 30 and 60, MV 8608 30, i.p.

## (15R, 16R, 20S)-14, 16:15,20:16,21-triepoxi-15,16-seco 14β, 17α-pregn-5-ene-3β, 15-diol [MV8608]
T-type Ca^2+ current
  T-type ICa amplitude: no effect; also recorded: relative weak depressing effect
R-type Ca^2+ channel [1]; 10^-7M applied in the patch pipette
  single channel conductance of R-type Ca^2+ channel: without affecting
R-type Ca^2+ channel [1]; 10^-7M applied in the patch pipette, 10^-6M nifedipine present
  single channel amplitude and probability of opening of the single R-type Ca^2+ channel: decreased the single channel amplitude and probability of opening
R-type Ca^2+ channel [1]; 10^-7M applied to the extra-patch pipette solution
  single channel current amplitude: spontaneous decrease and release of the blockade
R-type Ca^2+ channel [1]; 10^-7M applied to the extra-patch pipette solution (140mM KCl)
  opening of the R-type channel (probability, duration, frequency): increased the probability and duration of opening
R-type Ca^2+ channel [2]; 10^-6M of compound, human aortic VSM cell line (Figure 23)
  sustained increase of [Ca]i induced by 10^-7M PAF: able to block
R-type Ca^2+ channel [2]; 10^-9M of compound
  sustained increase of [Ca]i induced by 10^-7M PAF: failed to significantly decrease
  sustained increase of [Ca]i induced by sustained depolarization, ET-1 (10^-9M), PAF (10^-9M) or BK (10^-6M): completely blocked
  time within which the block occurred: 4 to 5 min
R-type Ca^2+ channel [2]; 10^-9M, freshly isolated human aortic endothelial cells, Figure 22
  basal sustained increase of [Ca]i: decrease
R-type Ca^2+ channel [2]; incl. MG63, FAOS-2, atherosclerotic human VSM cells, endothelial cells, T-lymphocytes, platelets (not shown), AOSMC-9
  blockade of the R-type Ca^2+ channel across cell types: blocked the R-type Ca^2+ channel in all cell types used
Mouse paw oedema
  paw oedema induced by histamine: dose-related inhibition
  paw oedema induced by serotonin: dose-related inhibition
Mouse paw oedema; 30 min prior
  bradykinin-induced paw oedema: unaffected
Murine model of pleurisy; 30, i.p.
  mononuclear cells influx, intrapleural PAF: antagonised significantly
  plasma extravasation, intrapleural PAF: antagonised significantly
Murine model of pleurisy; [4]
  neutrophils cells, intrapleural carrageenan: inhibited significantly
  total cells, intrapleural carrageenan: inhibited significantly
[3]
  increase of vascular permeability caused by bradykinin in the rat skin: antagonised in a dose-related manner
Human lymphocyte
  human lymphocyte proliferation: graded inhibition
